This is an account of results in patent US7423159B2, “Agent for preventing or treating neuropathy” (Takeda Pharmaceutical Company Limited, priority 2002, dated 2008).

Molecules are shown by their SMILES.

Broadly, the melting point is the temperature, or range, at which the solid turns liquid.

As for `CCOP(=O)(Cc1ccc(NC(=O)/C=C/c2cnn(C)c2-c2ccccc2F)cc1)OCC`, the melting point was 238 to 240 °C.
As for `CCOC(=O)Cc1ccc(NC(=O)CCc2cnn(-c3ccccc3)c2-c2ccccc2)cc1` [Example 81, N-[4-(Ethoxycarbonylmethyl)phenyl]-3-(1,5-diphenyl-1H-pyrazol-4-yl)propionamide], the figure is 143 to 144 °C; as for `CC(C)C(=O)NCc1ccc(NC(=O)/C=C/c2cnn(C)c2-c2ccc(F)cc2)cc1` [Example 139, (2E)-3-[5-(4-Fluorophenyl)-1-methyl-1H-pyrazol-4-yl]-N-{4-[(isobutyrylamino)methyl]phenyl}acrylamide], 258 to 259 °C.
`Cn1ncc(/C=C/C(=O)Nc2ccc(OCc3cscn3)cc2)c1-c1ccc(F)cc1` [Example 92, (2E)-3-[5-(4-Fluorophenyl)-1-methyl-1H-pyrazol-4-yl]-N-[4-(1,3-thiazol-4-ylmethoxy)phenyl]acrylamide] came in with a melting point of 171 to 172 °C.
Consider `CCOC(=O)c1ccc(NC(=O)/C=C/c2cnn(C)c2-c2ccc(F)cc2)cc1` [Example 180, ethyl 4-({(2E)-3-[5-(4-fluorophenyl)-1-methyl-1H-pyrazol-4-yl]prop-2-enoyl}amino)benzoate], for which the melting point fell in the range of 202 to 203 °C.
The figure for `CCOP(=O)(Cc1ccc(NC(=O)CCc2cnn(C)c2-c2ccc(F)cc2)cc1)OCC` is 143 to 144 °C; for `CCOP(=O)(Cc1ccc(NC(=O)/C=C/c2cnn(C)c2C)cc1)OCC` it is 228 to 230 °C; for `CCOP(=O)(Cc1ccc(NC(=O)/C=C/c2c(-c3ccc(F)cc3)cnn2C)cc1)OCC` it is 138 to 139 °C.
In the case of `Cn1ncc(/C=C/C(=O)Nc2cccc(CO)c2)c1-c1ccc(F)cc1` [Example 169, (2E)-3-[5-(4-Fluorophenyl)-1-methyl-1H-pyrazol-4-yl]-N-[3-(hydroxymethyl)phenyl)acrylamide], the melting point lay in the range of 130 to 132 °C.
`CCOP(=O)(Cc1ccc(NC(=O)/C=C/c2c(C)nn(C)c2-c2ccc(F)cc2)cc1)OCC` had a melting point of 159 to 160 °C.
The compound `CCc1csc(CCc2ccc(NC(=O)/C=C/c3cnn(C)c3-c3ccc(F)cc3)cc2)n1` [Example 113, (2E)-N-{4-[2-(4-Ethyl-1,3-thiazol-2-yl)ethyl]phenyl}-3-[5-(4-fluorophenyl)-1-methyl-1H-pyrazol-4-yl]acrylamide] showed a melting point of 200 to 201 °C.
`COP(=O)(Cc1ccc(NC(=O)/C=C/c2cnn(C)c2-c2ccccc2)cc1)OC`: the melting point lay in the range of 219 to 220 °C.
As for `CCOP(=O)(OCC)c1ccc(NC(=O)/C=C/c2cnn(C)c2-c2ccc(F)cc2)cc1`, the figure is 174 to 176 °C; as for `COP(=O)(Cc1ccc(NC(=O)/C=C/c2snnc2-c2ccc(F)cc2)cc1)OC`, 196 to 197 °C; as for `Cn1ncc(/C=C/C(=O)Nc2ccc(Cc3ccccn3)cc2)c1-c1ccc(F)cc1` [Example 96, (2E)-3-[5-(4-Fluorophenyl)-1-methyl-1H-pyrazol-4-yl]-N-[4-(pyridin-2-ylmethyl)phenyl]acrylamide], 215 to 216 °C.
The figure for `Cn1ncc(/C=C/C(=O)Nc2ccc(Cc3nc4c(s3)CCCC4)cc2)c1-c1ccc(F)cc1` [Example 124, (2E)-3-[5-(4-Fluorophenyl)-1-methyl-1H-pyrazol-4-yl]-N-[4-(4,5,6,7-tetrahydro-1,3-benzothiazol-2-ylmethyl)phenyl]acrylamide] is 205 to 206 °C.
As for `Cn1ncc(/C=C/C(=O)Nc2ccccc2CO)c1-c1ccc(F)cc1` [Example 184, (2E)-3-[5-(4-Fluorophenyl)-1-methyl-1H-pyrazol-4-yl]-N-[2-(hydroxymethyl)phenyl]acrylamide], the figure is 119 to 120 °C; as for `Cn1ncc(/C=C/C(=O)Nc2ccc(CCn3ccnc3)cc2)c1-c1ccc(F)cc1` [Example 187, (2E)-3-{5-(4-Fluorophenyl)-1-methyl-1H-pyrazol-4-yl}-N-{4-[2-(1H-imidazol-1-yl)ethyl]phenyl}acrylamide], 160 to 162 °C; as for `Cn1ncc(/C=C/C(=O)Nc2ccc(C(=O)O)cc2)c1-c1ccc(F)cc1` [Example 234, 4-({(2E)-3-[5-(4-fluorophenyl)-1-methyl-1H-pyrazol-4-yl]prop-2-enoyl}amino)benzoic acid], 291 to 292 °C.
The compound `Cn1ncc(/C=C/C(=O)Nc2ccc(CSC(C)(C)C)cc2)c1-c1ccc(F)cc1` [Example 211, (2E)-N-{4-[(tert-Butylthio)methyl]phenyl}-3-[5-(4-fluorophenyl)-1-methyl-1H-pyrazol-4-yl]acrylamide] showed a melting point of 166 to 168 °C.
The figure for `CCOP(=O)(Cc1ccc(NC(=O)/C=C/c2cnn(CC)c2-c2ccc(F)cc2)cc1)OCC` is 226 to 227 °C.
For the compound `CCc1nc(Cc2ccc(NC(=O)/C=C/c3cnn(C)c3-c3ccc(F)cc3)cc2)no1` [Example 118, (2E)-N-{4-[(5-Ethyl-1,2,4-oxadiazol-3-yl)methyl]phenyl}-3-[5-(4-fluorophenyl)-1-methyl-1H-pyrazol-4-yl]acrylamide], the melting point is 150 to 152 °C.
With `COc1ccc(-c2c(/C=C/C(=O)Nc3ccc(CP(=O)(OC)OC)cc3)cnn2C)cc1`, the melting point lay within 199 to 200 °C.
The figure for `Cn1ncc(/C=C/C(=O)Nc2ccc(CCn3cccn3)cc2)c1-c1ccc(F)cc1` [Example 186, (2E)-3-[5-(4-Fluorophenyl)-1-methyl-1H-pyrazol-4-yl]-N-{4-[2-(1H-pyrazol-1-yl)ethyl]phenyl}acrylamide] is 205 to 206 °C.
For `Cn1ncc(/C=C/C(=O)Nc2ccc(CS(=O)(=O)c3c[nH]nn3)cc2)c1-c1ccc(F)cc1` [Example 227, (2E)-3-[5-(4-Fluorophenyl)-1-methyl-1H-pyrazol-4-yl]-N-{4-[(1H-1,2,3-triazol-4-ylsulfonyl)methyl]phenyl}acrylamide], the melting point was 204 to 206 °C.
In turn, `CCn1nnnc1Cc1ccc(NC(=O)/C=C/c2cnn(C)c2-c2ccc(F)cc2)cc1` [Example 103, (2E)-N-{4-[(1-Ethyl-1H-tetrazol-5-yl)methyl]phenyl}-3-[5-(4-fluorophenyl)-1-methyl-1H-pyrazol-4-yl]acrylamide] showed a melting point of 206 to 207 °C.
`CCn1ncc(/C=C/C(=O)Nc2ccc(CP(=O)(OC)OC)cc2)c1-c1ccc(F)cc1`: the melting point is 187 to 189 °C.
The figure for `Cc1coc(Cc2ccc(NC(=O)/C=C/c3cnn(C)c3-c3ccc(F)cc3)cc2)n1` [Example 95, (2E)-3-[5-(4-Fluorophenyl)-1-methyl-1H-pyrazol-4-yl]-N-{4-[(4-methyl-1,3-oxazol-2-yl)methyl]phenyl}acrylamide] is 220 to 221 °C.
Take `CCc1nc(CCc2ccc(NC(=O)/C=C/c3cnn(C)c3-c3ccc(F)cc3)cc2)cs1` [Example 90, (2E)-N-{4-[2-(2-Ethyl-1,3-thiazol-4-yl)ethyl]phenyl}-3-[5-(4-fluorophenyl)-1-methyl-1H-pyrazol-4-yl]acrylamide]: the melting point was 190 to 191 °C.
For the compound `Cn1ncc(/C=C/C(=O)Nc2ccc(Cc3nc(C(=O)O)cs3)cc2)c1-c1ccc(F)cc1` [Example 131, 2-[4-({(2E)-3-[5-(4-fluorophenyl)-1-methyl-1H-pyrazol-4-yl]prop-2-enoyl}amino)benzyl]-1,3-thiazole-4-carboxylic acid], the melting point was 226 to 227 °C.
As for `CCn1nc(Cc2ccc(NC(=O)/C=C/c3cnn(C)c3-c3ccc(F)cc3)cc2)oc1=O` [Example 120, (2E)-N-{4-[(4-Ethyl-5-oxo-4,5-dihydro-1,3,4-oxadiazol-2-yl)methyl]phenyl}-3-[5-(4-fluorophenyl)-1-methyl-1H-pyrazol-4-yl]acrylamide], the figure is 149 to 150 °C.
The figure for `CCc1nccn1Cc1ccc(NC(=O)/C=C/c2cnn(C)c2-c2ccc(F)cc2)cc1` [Example 191, (2E)-N-{4-[(2-Ethyl-1H-imidazol-1-yl)methyl]phenyl}-3-[5-(4-fluorophenyl)-1-methyl-1H-pyrazol-4-yl]acrylamide] is 237 to 238 °C; for `CCc1cn(Cc2ccc(NC(=O)/C=C/c3cnn(C)c3-c3ccc(F)cc3)cc2)cn1` [Example 171, (2E)-N-{4-[(4-Ethyl-1H-imidazol-1-yl)methyl]phenyl}-3-[5-(4-fluorophenyl)-1-methyl-1H-pyrazol-4-yl]acrylamide] it is 224 to 226 °C.
The figure for `COC(=O)c1ccc(NC(=O)CCc2cnn(-c3ccccc3)c2-c2ccccc2)cc1` [Example 82, N-[4-(Methoxycarbonyl)phenyl]-3-(1,5-diphenyl-1H-pyrazol-4-yl)propionamide] is 196 to 197 °C; for `COP(=O)(Cc1ccc(NC(=O)/C=C/c2cnn(C)c2-c2ccc(C)cc2)cc1)OC` it is 207 to 209 °C; for `COP(=O)(Cc1ccc(NC(=O)/C=C/c2cnn(C)c2-c2ccc(C(F)(F)F)cc2)cc1)OC` it is 212 to 213 °C.
As to `Cn1ncc(/C=C/C(=O)Nc2ccc(CS(=O)(=O)c3ccccc3)cc2)c1-c1ccc(F)cc1` [Example 225, (2E)-3-[5-(4-Fluorophenyl)-1-methyl-1H-pyrazol-4-yl]-N-{4-[(phenylsulfonyl)methyl]phenyl}acrylamide], the melting point fell in the range of 223 to 224 °C.
`COP(=O)(Cc1ccc(NC(=O)/C=C/c2cnn(C)c2-c2cccc(F)c2)cc1)OC` showed a melting point of 224 to 226 °C.
As for `CCN1C(=O)SC(Cc2ccc(NC(=O)/C=C/c3cnn(C)c3-c3ccc(F)cc3)cc2)C1=O` (centres unmarked) [Example 111, (2E)-N-{4-[(3-Ethyl-2,4-dioxo-1,3-thiazolidin-5-yl)methyl]phenyl}-3-[5-(4-fluorophenyl)-1-methyl-1H-pyrazol-4-yl]acrylamide], the figure is 214 to 215 °C; as for `Cn1nnnc1S(=O)(=O)Cc1ccc(NC(=O)/C=C/c2cnn(C)c2-c2ccc(F)cc2)cc1` [Example 226, (2E)-3-(5-(4-Fluorophenyl)-1-methyl-1H-pyrazol-4-yl]-N-(4-{[(1-methyl-1H-tetrazol-5-yl)sulfonyl]methyl}phenyl)acrylamide], 224 to 225 °C; as for `CCOP(=O)(OCC)C(OC)c1ccc(NC(=O)/C=C/c2cnn(C)c2-c2ccc(F)cc2)cc1` (centres unmarked), 200 to 201 °C.
